For one assay, the target named is T1, hERG potassium channels (Homo sapiens, UniProt Q12809).
T1 construct: expressed in transfected cells; host or cells: HEK293
As to the kind of experiment: hERG potassium channel whole cell patch clamp. The class given is cell-based. The following applies: HEK293 cells stably expressing hERG, tail current, read-out: IC50 of inhibition on hERG potassium channels at cell level. Here is the method: 3) Assay on the Effects of the Compounds on hERG Potassium Channels
HEK293 cells stably expressing an hERG channel were cultured in 35 mm culture dishes and placed in a 37° C./5% CO2 incubator for at least 24 hours before the experiment. The cell culture medium was DMEM containing 10% fetal bovine serum and 250 μg/mL G418.
The ingredients of the extracellular fluid used in the whole cell patch clamp experiment were (mM): NaCl, 137; KCl, 4; CaCl2, 1.8; MgCl2, 1; HEPES, 10; glucose 10; pH 7.4 (NaOH titration). All tested compounds and control compound solutions contained 0.3% DMSO. The intracellular fluid (mM) was: K Aspartate, 130; MgCl2, 5; EGTA 5; HEPES, 10; Tris-ATP 4; pH 7.2 (KOH titration).
One dish was taken out for each experiment, washed twice with the extracellular fluid, and placed on an inverted microscope stage. The whole cell patch clamp experiment was performed at room temperature with a tip resistance of 3 to 5 MΩ for a borosilicate glass microelectrode. After the whole cell recording mode, the membrane potential was clamped at −80 mV, gave a +50 mV depolarization voltage stimulation to the cells every 30 s and then repolarized to −50 mV for 3 s after 2 s to elicit hERG tail current. The cells were given a −50 mV repolarization voltage for 50 ms before the depolarization voltage stimulation, and the current recorded under this voltage was used as a baseline for calculating the hERG tail current. The hERG tail current was stably recorded for at least 3 minutes in the extracellular fluid before the addition of the compound. When the amplitude change of the hERG tail current was less than 5% after perfusion administration, it was considered that the drug action reached a steady state. Data was acquired and analyzed by a pCLAMP 10.1 software program. […] The inhibition rate of the tested compound to the hERG current was calculated according to the following equation: % inhibition rate={1−(remaining current amplitude)/(control current amplitude)}×100 […]
(Block of hERG is tested as a sign of cardiac risk.)

For assay [1], the target named is wild type EGFR in A431 cells (Homo sapiens, UniProt P00533). As to the kind of experiment: EGFR wild type cell phosphorylation assay (A431).
wild type EGFR in A431 cells, sequence (P00533 25-1210): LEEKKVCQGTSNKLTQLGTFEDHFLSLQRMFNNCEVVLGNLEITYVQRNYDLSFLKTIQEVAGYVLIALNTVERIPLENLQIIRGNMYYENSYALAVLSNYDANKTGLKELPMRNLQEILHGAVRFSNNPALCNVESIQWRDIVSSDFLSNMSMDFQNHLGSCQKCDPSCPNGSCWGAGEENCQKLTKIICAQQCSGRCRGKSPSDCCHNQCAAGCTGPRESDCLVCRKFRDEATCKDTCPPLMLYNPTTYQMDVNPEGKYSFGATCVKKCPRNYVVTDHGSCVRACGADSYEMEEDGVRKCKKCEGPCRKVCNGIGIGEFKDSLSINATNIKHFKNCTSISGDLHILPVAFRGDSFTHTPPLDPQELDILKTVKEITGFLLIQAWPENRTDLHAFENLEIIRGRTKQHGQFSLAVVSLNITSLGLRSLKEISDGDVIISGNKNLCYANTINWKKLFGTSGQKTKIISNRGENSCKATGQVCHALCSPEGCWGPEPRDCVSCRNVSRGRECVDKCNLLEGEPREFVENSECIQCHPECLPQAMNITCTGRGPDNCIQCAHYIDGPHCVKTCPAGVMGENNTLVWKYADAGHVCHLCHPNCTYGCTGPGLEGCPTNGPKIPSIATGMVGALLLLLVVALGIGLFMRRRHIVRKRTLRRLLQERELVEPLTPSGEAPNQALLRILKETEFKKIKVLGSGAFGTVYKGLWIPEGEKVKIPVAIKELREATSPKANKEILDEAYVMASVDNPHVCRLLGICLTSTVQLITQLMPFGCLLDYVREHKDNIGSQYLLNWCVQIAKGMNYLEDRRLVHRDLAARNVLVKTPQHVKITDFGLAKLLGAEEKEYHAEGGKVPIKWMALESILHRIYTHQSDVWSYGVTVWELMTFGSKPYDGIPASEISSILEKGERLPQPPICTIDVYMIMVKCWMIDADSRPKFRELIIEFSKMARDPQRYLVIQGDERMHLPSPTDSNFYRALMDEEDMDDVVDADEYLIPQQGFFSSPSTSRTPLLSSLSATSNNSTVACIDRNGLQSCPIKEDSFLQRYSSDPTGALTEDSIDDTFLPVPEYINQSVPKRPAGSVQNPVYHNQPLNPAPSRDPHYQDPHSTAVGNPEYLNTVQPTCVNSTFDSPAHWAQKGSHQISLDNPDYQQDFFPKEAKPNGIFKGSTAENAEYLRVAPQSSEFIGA
Experimental: Test 1: EGFR Wild Type Cell Phosphorylation Assay
The human epidermoid carcinom cell line A431 expressed wild type EGFR and was purchased from the cell bank of the Chinese Academy of Sciences. A431 was maintained in an EMEM culture media containing 10% fetal bovine serum. The cells were grown at 37° C. in a humidified incubator containing 5% CO2. Endogenous p-EGFR in the cell lysate was assayed according to Phospho-EGFR HTRF kit (Cisbio, No. #64HR1PEG). Cells were plated (50000 cells/well) in a volume of 100 μL of complete media in 96-well cell culture plates and cultured at 37° C. with 5% CO2 overnight. 4-fold serial dilutions was added to the cells, the maximum concentration of the reaction being 10 μM. The cells were incubated continuously for 2 hours, 100 ng/well of EGF was added, incubated at 37° C. for 10 minutes, then the culture solution was discarded, lysis buffer (25 μL/well) was added immediately, lyse the cells at room temperature for 10 minutes, then 12 μL/well of the cell lysates were added to a Greiner white small-volume 384-well plate, detection antibodies (Anti-phospho EGFR-d2 and Anti-EGFR-Tb) were added, and the cells were incubated at 25° C. for 60 minutes. The HTRF fluorescence value was measured with CLARIOstar (BMG LABTECH) after the incubation, and IC50 was determined using GraphPad Prism 5.0.
Assay [2] deals with EGFR (L858R) single mutant (Homo sapiens, UniProt P00533, L858R). Put plainly: HTRF kinase activity assay, EGFR (L858R) single mutant. Background: Time-resolved FRET reads energy transfer from a long-lived donor to a nearby acceptor.
Experimental: The above kinases were purchased from Invitrogen Corporation Shanghai Representative Office.
The reaction concentration of the compounds was three times diluted from 1000 nM for 9 concentrations. The concentration of DMSO in the reaction system was 2%. The enzyme and the compound were pre-incubated for 15 minutes, and then ATP and substrate were added to initiate the reaction. All enzyme catalyzed reactions were carried out at 25° C. for 60 minutes. […] Measure the HTRF fluorescence value with CLARIOstar (BMG LABTECH) after the incubation, and IC50 was determined using GraphPad Prism 5.0.
Assay [3] addresses T2, Exon19 deletion EGFR in HCC827 cells (Homo sapiens, UniProt P00533, DEL746-750).
T2 construct: Assayed the endogenous p-EGFR of the cell lysate; host or cells: HCC827
Put plainly: Exon19 deletion EGFR cell phosphorylation assay (HCC827). The following applies: 2 h incubation, read-out: Cell level EGFR phosphorylation IC50, HCC827 (EGFR del19). It is filed as cell-based.
Experimental: Test 2: Exon19 Deletion EGFR (Activated Single Mutant) Cell Phosphorylation Assay
The human non-small cell lung cancer cell line HCC827 (Exon19 deletion EGFR, activated single mutant) was purchased from the cell bank of the Chinese Academy of Sciences. HCC827 was maintained in an RPMI1640 culture media containing 10% fetal bovine serum. The cells were grown at 37° C. in a humidified incubator containing 5% CO2. Assayed the endogenous p-EGFR of the cell lysate according to the Phospho-EGFR HTRF kit (Cisbio, No. #64HR1PEG). 100 μL of cells were added to a 96-well plate (50000 cells/well), and cultured overnight at 37° C. in a cell incubator with 5% CO2. 4-fold serial dilutions was added to the cells, the maximum concentration of the reaction being 10 μM. The culture solution was discarded after 2 hours' continuous incubation, lysate (25 μL/well) was added immediately, lyse the cells at room temperature for 10 minutes, then 12 μL/well of cells were added to a Greiner white small-volume 384-well plate, detection antibodies (Anti-phospho EGFR-d2 and Anti-EGFR-Tb) were added, and the cells were incubated at 25° C. for 60 minutes. The HTRF fluorescence value was measured with CLARIOstar (BMG LABTECH) after the incubation, and IC50 was determined using GraphPad Prism 5.0.

Another assay has as its target T3, EGFR wild type (Homo sapiens, UniProt P00533).
T3 construct: purchased Invitrogen Corporation Shanghai Representative Office
Put plainly: HTRF kinase activity assay, EGFR wild type. It is filed as biochemical. The following applies: 10 μM ATP, read-out: In vitro enzymatic activity IC50, EGFR.

Molecules are shown by their SMILES.

These results are taken from patent US10654851B2, “Deuterated 3-(4,5-substituted aminopyrimidine)phenyl derivatives and use thereof” (NANJING CHUANGTE PHARMACEUTICAL TECHNOLOGY CO., LTD, priority 2016, dated 2020).

T3 sequence (P00533 25-1210): as above
T2 sequence (P00533 with tags, fused parts or gaps DEL746-750): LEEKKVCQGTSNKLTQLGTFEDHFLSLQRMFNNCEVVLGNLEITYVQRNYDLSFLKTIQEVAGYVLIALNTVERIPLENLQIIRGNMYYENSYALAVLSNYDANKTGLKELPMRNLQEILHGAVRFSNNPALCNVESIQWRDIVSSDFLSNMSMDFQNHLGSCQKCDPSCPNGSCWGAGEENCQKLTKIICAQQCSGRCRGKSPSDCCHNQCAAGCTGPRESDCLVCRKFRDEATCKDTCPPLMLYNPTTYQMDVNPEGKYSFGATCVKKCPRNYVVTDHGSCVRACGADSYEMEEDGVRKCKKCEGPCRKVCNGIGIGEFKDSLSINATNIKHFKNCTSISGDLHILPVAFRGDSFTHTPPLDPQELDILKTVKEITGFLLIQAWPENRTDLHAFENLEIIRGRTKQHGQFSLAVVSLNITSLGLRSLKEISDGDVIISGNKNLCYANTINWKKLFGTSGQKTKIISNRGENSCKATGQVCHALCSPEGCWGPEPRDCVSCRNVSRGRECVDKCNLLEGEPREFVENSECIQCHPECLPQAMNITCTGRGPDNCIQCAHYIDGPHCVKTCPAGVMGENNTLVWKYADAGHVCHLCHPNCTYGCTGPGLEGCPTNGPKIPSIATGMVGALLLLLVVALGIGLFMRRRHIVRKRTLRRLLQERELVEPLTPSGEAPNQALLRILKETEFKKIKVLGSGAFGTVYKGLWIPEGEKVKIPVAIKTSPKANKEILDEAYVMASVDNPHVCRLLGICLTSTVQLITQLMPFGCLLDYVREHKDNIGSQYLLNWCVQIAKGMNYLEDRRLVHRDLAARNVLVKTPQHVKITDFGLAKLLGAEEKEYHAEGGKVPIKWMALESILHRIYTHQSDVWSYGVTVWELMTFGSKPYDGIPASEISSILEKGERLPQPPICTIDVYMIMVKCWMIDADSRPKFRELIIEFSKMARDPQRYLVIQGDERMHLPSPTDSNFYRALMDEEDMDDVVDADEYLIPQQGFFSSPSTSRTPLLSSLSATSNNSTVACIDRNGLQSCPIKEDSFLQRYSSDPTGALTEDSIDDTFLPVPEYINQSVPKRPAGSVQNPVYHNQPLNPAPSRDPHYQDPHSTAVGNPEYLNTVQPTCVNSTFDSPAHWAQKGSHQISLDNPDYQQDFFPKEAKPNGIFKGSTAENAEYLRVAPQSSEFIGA
T1 sequence (Q12809 whole entry): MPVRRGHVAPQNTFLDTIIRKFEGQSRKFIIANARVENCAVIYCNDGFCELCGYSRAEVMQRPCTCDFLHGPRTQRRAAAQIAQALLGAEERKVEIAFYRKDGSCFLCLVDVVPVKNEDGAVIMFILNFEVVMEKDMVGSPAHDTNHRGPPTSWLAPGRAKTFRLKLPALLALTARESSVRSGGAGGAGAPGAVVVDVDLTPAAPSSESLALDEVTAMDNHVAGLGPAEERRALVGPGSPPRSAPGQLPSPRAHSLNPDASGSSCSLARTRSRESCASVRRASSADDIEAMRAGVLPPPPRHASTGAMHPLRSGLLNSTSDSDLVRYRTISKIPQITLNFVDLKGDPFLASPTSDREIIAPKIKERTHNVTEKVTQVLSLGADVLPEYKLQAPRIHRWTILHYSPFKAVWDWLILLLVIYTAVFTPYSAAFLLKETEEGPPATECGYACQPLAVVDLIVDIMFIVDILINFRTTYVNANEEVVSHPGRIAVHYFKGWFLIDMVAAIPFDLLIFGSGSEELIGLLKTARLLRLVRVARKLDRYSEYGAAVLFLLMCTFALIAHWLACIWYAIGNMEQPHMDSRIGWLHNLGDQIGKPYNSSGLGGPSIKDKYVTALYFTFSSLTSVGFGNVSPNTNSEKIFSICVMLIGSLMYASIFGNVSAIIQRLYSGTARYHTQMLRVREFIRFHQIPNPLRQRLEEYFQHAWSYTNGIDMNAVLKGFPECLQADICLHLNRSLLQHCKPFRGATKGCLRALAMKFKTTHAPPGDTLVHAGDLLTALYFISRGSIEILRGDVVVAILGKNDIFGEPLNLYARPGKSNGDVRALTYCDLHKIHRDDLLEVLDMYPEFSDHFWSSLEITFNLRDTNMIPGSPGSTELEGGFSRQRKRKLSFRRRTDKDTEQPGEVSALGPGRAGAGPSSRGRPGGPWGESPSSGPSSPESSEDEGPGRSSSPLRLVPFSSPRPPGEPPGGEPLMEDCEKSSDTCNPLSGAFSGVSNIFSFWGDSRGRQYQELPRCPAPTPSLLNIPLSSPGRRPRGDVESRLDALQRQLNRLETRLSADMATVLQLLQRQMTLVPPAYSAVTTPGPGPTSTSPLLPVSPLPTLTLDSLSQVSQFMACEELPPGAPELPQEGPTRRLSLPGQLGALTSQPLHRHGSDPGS

For `[2H]C([2H])([2H])N(CCN(C)C)c1cc(OC)c(Nc2nccc(-c3cn4c5c(cccc35)CCC4)n2)cc1NC(=O)C=C` [Compound 24], the 50% inhibitory concentration (IC50) (usually the concentration needed to halve the response being measured) at hERG potassium channels amounted to 1970 nM; in assay [1], 520 nM; in assay [2], 8.99 nM; in assay [3], 78.1 nM; at EGFR wild type it was 15.7 nM.
On to `[2H]C([2H])([2H])NCCN(C)c1cc(OC)c(Nc2nccc(-c3cn4c5c(cccc35)CCC4)n2)cc1NC(=O)C=C` [Compound 34], for which the results for the IC50 (in assay [2]; on EGFR wild type) were 14.1 nM and 35.4 nM, respectively.
With `[2H]C([2H])([2H])N(CCN(C)c1cc(OC)c(Nc2nccc(-c3cn4c5c(cccc35)CCC4)n2)cc1NC(=O)C=C)C([2H])([2H])[2H]` [Compound 16], the half-inhibitory concentration (IC50) is 2670 nM at hERG potassium channels; 732 nM in assay [1]; 11.6 nM in assay [2]; 103 nM in assay [3]; 27 nM at EGFR wild type.
On the same counts, the results for `[2H]C([2H])([2H])N(C)CCN(C)c1cc(OC)c(Nc2nccc(-c3cn4c5c(cccc35)CCC4)n2)cc1NC(=O)C=C` [Compound 11] are 1850 nM, 730 nM, 11.5 nM, 101 nM and 38 nM.
